Experimental data from patent publication US6362369B1, “Phthalic acid diamide derivatives fluorine-containing aniline compounds as starting material, agricultural and horticultural insecticides, and a method for application of the insecticides” (Nihon Nohyaku Co., Ltd., priority 1997, dated 2002).

What was measured:
Format in all cases: in vivo
[1] = test system: diamondback moth (Plutella xylostella); assay: Insecticidal effect on diamondback moth (Test Example 1); details: diamondback moth; judged by the mortality criterion of Test Example 1
In short: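 Read-out was mortality from hatched-insect counts taken 6 days after the egg-bearing cabbage seedling was immersed, graded by set criteria. Seedlings were air-dried and kept at 25° C after treatment. Groups of 10 insects, in triplicate.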

[2] = test system: rice leafroller (Cnaphalocrocis medinalis); assay: Insecticidal effect on rice leafroller (Test Example 3); details: 500 ppm; rice lamina immersed; third-instar larvae of rice leafroller; four days after inoculation; 25° C., humidity 70%
In short: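 Groups of 10 third-instar larvae, in triplicate, are placed on air-dried lamina resting on wet filter paper. Incubation runs four days at 25° C with 70% humidity before survivors and dead are tallied.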

[3] = test system: common cutworm (Spodoptera Litura); assay: Insecticidal effect on common cutworm (Test Example 2); details: 500 ppm; cabbage leaf immersed; second-instar larvae of common cutworm; eight days after inoculation; 25° C.
In short: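 Second-instar larvae placed in 9 cm Petri dishes with air-dried treated material, held at 25 °C. Dead and live insects counted 8 days after inoculation; mortality calculated and scored against a set criterion. Triplicate groups of 10 insects.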

Compound | Insecticidal effect, Test Example 1 [1] | Insecticidal effect, Test Example 3 [2] | Insecticidal effect, Test Example 2 [3]
Cc1cc(OCC(F)(F)C(F)F)ccc1NC(=O)c1c(Br)cccc1C(=O)NC(C)C [compound 319] | A (100) | B (99-90) | B (99-90)
CC(C)NC(=O)c1cccc(Br)c1C(=O)Nc1ccc(OC(F)(F)F)cc1Cl [compound 323] | A (100) | A (100) | C (89-80)
Cc1cc(OC(F)F)ccc1NC(=O)c1c(Br)cccc1C(=O)NC(C)C [compound 325] | A (100) | A (100) | A (100)
Cc1cc(OC(F)(F)C(F)C(F)(F)F)ccc1NC(=O)c1c(Br)cccc1C(=O)NC(C)C (stereo not drawn) [compound 328] | A (100) | A (100) | A (100)
Cc1cc(OC(F)(F)C(F)Cl)ccc1NC(=O)c1c(Br)cccc1C(=O)NC(C)C (stereo not drawn) [compound 329] | A (100) | A (100) | A (100)
Cc1cc(Oc2cccc(C(F)(F)F)c2)ccc1NC(=O)c1c(Br)cccc1C(=O)NC(C)C [compound 334] | A (100) | C (89-80) | C (89-80)
Cc1cc(OC(F)F)ccc1NC(=O)c1ccc(Br)c(Br)c1C(=O)NC(C)C [compound 338] | A (100) | A (100) | B (99-90)
Cc1cc(Cl)ccc1NC(=O)c1ccc(Br)c(Br)c1C(=O)NC(C)C [compound 339] | A (100) | A (100) | B (99-90)
CC(C)NC(=O)c1c(I)cccc1C(=O)Nc1ccc(Cl)cc1 [compound 345] | A (100) | A (100) | B (99-90)
CC(C)NC(=O)c1c(I)cccc1C(=O)Nc1ccc(Br)cc1 [compound 346] | A (100) | A (100) | C (89-80)
CC(C)NC(=O)c1c(I)cccc1C(=O)Nc1ccc(I)cc1 [compound 347] | A (100) | C (89-80) | B (99-90)
CC(C)NC(=O)c1c(I)cccc1C(=O)Nc1ccc(C(F)(F)C(F)(F)C(F)(F)F)cc1 [compound 350] | A (100) | A (100) | A (100)
CC(C)NC(=O)c1c(I)cccc1C(=O)Nc1ccc(C(F)(C(F)(F)F)C(F)(F)F)cc1 [compound 351] | A (100) | A (100) | A (100)
CC(C)NC(=O)c1c(I)cccc1C(=O)Nc1ccc(OC(F)(F)C(F)OC(F)(F)F)cc1 (stereo not drawn) [compound 353] | A (100) | A (100) | A (100)
CC(C)NC(=O)c1c(I)cccc1C(=O)Nc1ccc(SC(F)F)cc1 [compound 354] | A (100) | A (100) | A (100)
CC(C)NC(=O)c1c(I)cccc1C(=O)Nc1ccc(SCC(F)(F)F)cc1 [compound 355] | A (100) | A (100) | C (89-80)
CC(C)NC(=O)c1c(I)cccc1C(=O)Nc1ccc(SC(F)(F)C(F)F)cc1 [compound 356] | A (100) | A (100) | A (100)
CC(C)NC(=O)c1c(I)cccc1C(=O)Nc1ccc(F)c(F)c1 [compound 360] | A (100) | A (100) | D (79-50)
Cc1c(Cl)cccc1NC(=O)c1cccc(I)c1C(=O)NC(C)C [compound 361] | A (100) | A (100) | A (100)
Cc1cc(Cl)ccc1NC(=O)c1cccc(I)c1C(=O)NC(C)C [compound 362] | A (100) | A (100) | A (100)
Cc1ccc(Cl)cc1NC(=O)c1cccc(I)c1C(=O)NC(C)C [compound 363] | A (100) | A (100) | A (100)

Compound | Insecticidal effect, Test Example 1 [1] | Insecticidal effect, Test Example 3 [2] | Insecticidal effect, Test Example 2 [3]
Cc1ccc(NC(=O)c2cccc(I)c2C(=O)NC(C)C)c(C)c1Cl [compound 364] | A (100) | D (79-50) | A (100)
Cc1c(Cl)ccc(NC(=O)c2cccc(I)c2C(=O)NC(C)C)c1C [compound 365] | A (100) | A (100) | A (100)
Cc1cc(Br)ccc1NC(=O)c1cccc(I)c1C(=O)NC(C)C [compound 366] | A (100) | A (100) | A (100)
Cc1cc(I)ccc1NC(=O)c1cccc(I)c1C(=O)NC(C)C [compound 367] | A (100) | A (100) | A (100)
Cc1cc(F)ccc1NC(=O)c1cccc(I)c1C(=O)NC(C)C [compound 368] | A (100) | A (100) | A (100)
CC(C)NC(=O)c1c(I)cccc1C(=O)Nc1ccc(C(F)(F)F)cc1Cl [compound 369] | A (100) | A (100) | A (100)
Cc1c(NC(=O)c2cccc(I)c2C(=O)NC(C)C)cccc1C(F)(F)F [compound 370] | A (100) | A (100) | A (100)
Cc1cc(C(F)(F)F)ccc1NC(=O)c1cccc(I)c1C(=O)NC(C)C [compound 371] | A (100) | A (100) | A (100)
Cc1cc(C(F)(F)C(F)(F)F)ccc1NC(=O)c1cccc(I)c1C(=O)NC(C)C [compound 372, 3-iodo-N^1-(4-pentafluoroethyl-2-methylphenyl)-N^2-isopropyl-phthalic acid diamide] | A (100) | A (100) | A (100)
Cc1cc(C(F)(F)C(F)(F)C(F)(F)F)ccc1NC(=O)c1cccc(I)c1C(=O)NC(C)C [compound 373] | A (100) | A (100) | A (100)
Cc1cc(C(F)(C(F)(F)F)C(F)(F)F)ccc1NC(=O)c1cccc(I)c1C(=O)NC(C)C [compound 374] | A (100) | A (100) | A (100)
Cc1cc(C(F)(F)C(F)(F)C(F)(F)C(F)(F)F)ccc1NC(=O)c1cccc(I)c1C(=O)NC(C)C [compound 375] | A (100) | A (100) | A (100)
COc1ccc(NC(=O)c2cccc(I)c2C(=O)NC(C)C)c(C)c1C [compound 378] | A (100) | A (100) | D (79-50)
Cc1cc(OCC(F)(F)F)ccc1NC(=O)c1cccc(I)c1C(=O)NC(C)C [compound 379] | A (100) | A (100) | A (100)
Cc1cc(OC(F)(F)C(F)(F)Br)ccc1NC(=O)c1cccc(I)c1C(=O)NC(C)C [compound 380] | A (100) | A (100) | A (100)
Cc1cc(OC(F)(F)C(F)(Cl)Cl)ccc1NC(=O)c1cccc(I)c1C(=O)NC(C)C [compound 381] | A (100) | A (100) | A (100)
CC(C)NC(=O)c1c(I)cccc1C(=O)Nc1ccc(OC(F)F)c(F)c1 [compound 382] | A (100) | A (100) | B (99-90)
CC(C)NC(=O)c1c(I)cccc1C(=O)Nc1ccc(OC(F)F)c(OC(F)F)c1 [compound 385] | A (100) | A (100) | B (99-90)
Cc1cc(OC(F)(F)F)ccc1NC(=O)c1cccc(I)c1C(=O)NC(C)C [compound 386] | A (100) | A (100) | A (100)
Cc1cc(OC(F)F)ccc1NC(=O)c1cccc(I)c1C(=O)NC(C)C [compound 387, N^1-(4-difluoromethoxy-2-methylphenyl)-3-iodo-N^2-isopropylphthalic acid diamide] | A (100) | A (100) | A (100)
